Test results reported in patent US10980238B2, “Alkali metal salt for use in treatment of varroa destructor mite infestation of honey bees” (Universität Hohenheim, priority 2015, dated 2021).
“And” between values parts separate entries of the source, which are not always exact repeats. Identical values can stand only once.

Columns and labels:
[1] = test system: bees; settings: 25 mM in 70% sucrose; 50 bees
Experimental: (§6) The next set of experiments was carried out in plastic container with 50 bees and 20 mites each. Bees were fed the same amount of unspecific dsRNA that has been used in previous assays in 70% sucrose solution, LiCl at a concentration of 25 mM in 70%, sucrose solution, and 70% sucrose solution only.

[2] = test system: Varroa destructor; assay: Experiment 9 artificial swarms: mite fall; format: in vivo; settings: 25 mM or 50 mM
Experimental: Six artificial swarms were fed with sucrose/LiCl after a starving phase of several hours. LiCl was dissolved in sucrose at final concentrations of 25 mM and 50 mM. Each artificial swarm received 500 ml of the sucrose/LiCl mixture in a feeding balloon. The total volume of sucrose/LiCl solution was consumed by the bees. Mite fall was monitored for 7 days. Afterwards, bees were treated with Perizin® to assess the number of remaining mites.

[3] = test system: Varroa destructor; assay: Experiment 2 cage test (50 bees, 20 mites): dead mites; format: in vivo; settings: 25 mM in 70% sucrose
Experimental: as §6

[4] = test system: bees; assay: Experiment 3 dose response cage test (50 bees, 25 mites): bee survival and health; format: in vivo, Apis mellifera
Experimental: (§1) LiCl was added to 70% sucrose solution to final concentrations of 16 μM, 80 μM, 400 μM, 2 mM, 10 mM, 50 Mm, and 250 mM, respectively. 2 ml of the respective solution was fed to the bees, if the sucrose/LiCl solution was entirely ingested additional sucrose syrup was offered ad libidum. Uptake of LiCl solution as well as survival rate of bees and mites was monitored 3 times daily (morning, noon, evening). Additionally, the healthiness of bees was scored based on characteristic behavioral features. LiCl was administered until all mites were dead, and the experiment continued with plain sucrose syrup to record the response of bees over the entire 2 weeks of the experiment. For control bees treated with sucrose syrup only, 9 mites died within the course of the experiment with even timely distribution of the events, indicating natural death of mites. 26 bees died in the same period of time. In view of the life span of a worker bee (4 weeks) this relates to the natural death rate that can be expected in a time span of 14 days. However, 12 bees were lost in a single day equaling almost 50% of the total bee loss in this control experiment. […] For that reasons the sudden loss of bees on day 14 is considered to result from a mistake in bee treatment as feeding inappropriate amounts of sucrose syrup. (See FIG. 4, dotted red line)
(§2) Additionally, we set out to test activity of a single dose on mite viability. Sucrose with 25 mM LiCl was fed to a cage of 50 bees infested with 25 mites and monitored as described above. […] As such, a single dose of LiCl can be used to kill mites under the described conditions.
(§3) To explore the upper limit of dosage and limits of tolerability of bees we fed sucrose containing 100 mM of LiCl as only food source over 14 days. […] In view of the latter results the effective window for concentration and administration and regimen of LiCl is sufficiently large to elevate low but effective concentrations (10 mM) more than 10 fold or prolong the time of administration substantially without negative impact on bee health.

[5] = test system: honey bee larvae; assay: Experiment 8 larval development in vitro; format: in vivo, Apis mellifera
Experimental: In order to assess the effect of LiCl on larval development in vitro, larvae were obtained by caging the queen for 24 h on broodless combs in the colony. After 5 to 6 days when the larvae reached the age of about 48 h they were transferred to petri dishes filled with larval food. The petri dishes were placed in plastic boxed filled with 8% sulfuric acid in order to prevent fungi infection and kept in a chamber at 34° C. and 95% relative humidity. The larvae were fed as needed with a mixture consisting of 53% royal jelly, 4% glucose, 8% fructose, 1% yeast extract and water (control). For samples treated with LiCl, 10 mM, 25 mM or 50 mM LiCl were added to the mixture. Prior to the pupa phase, the larvae were placed on a tissue for defecating which occurred approximately on day 9. Afterwards larvae were placed in well plates until hatching. Larvae mortality was monitored on a daily basis.

[6] = test system: Varroa destructor; assay: Experiment 3 dose response cage test (50 bees, 25 mites): mite survival; format: in vivo
Experimental: as §1, §2, §3

[7] = test system: Varroa mites; assay: Experiment 5 cage comparison of LiCl, NaCl and MgCl2: dead mites; format: in vivo, Varroa destructor
Experimental: (§4) In a further experiment LiCl, NaCl and MgCl2 were selected and their acaricidal activity compared. The experiment was performed in cages of 50 bees, to each of which 25 mites were added. Bees in control cages received sucrose only. LiCl, NaCl or MgCl2 were added to 70% sucrose solutions at a final concentration of 25 mM each and fed to the bees for seven days. Survival rate of bees and mites were monitored daily. Dead bees and mites were removed from the cages.
(§5) The numbers represent mean values derived from 6 cages. […] Numbers for NaCl, MgCl2 and control represent mean values derived from 3 separate cages.

[8] = test system: bees; settings: 50 bees per cage, mean of 6 cages (LiCl) or 3 cages
Experimental: as §4, §5

[9] = test system: Varroa destructor; assay: Experiment 7 mini-hives (2000 to 3000 bees), semi-field conditions; format: in vivo; settings: remaining mites killed with Perizin and counted
Experimental: In order to investigate if the miticidal effect of LiCl can also be detected under semi-field conditions, so-called “mini-hives” consisting of 2000 to 3000 bees each were treated with LiCl.
LiCl was dissolved in 70% sucrose to final concentrations of 2 mM, 10 mM and 25 mM. Each concentration was replicated 6 times and fed to the bees for 23 days. Dead mites were documented daily. After 23 days of LiCl treatment, remaining mites were killed with Perizin® (commercial product containing the active ingredient coumaphos) and counted (see Table 4 “Remaining mites”).

[10] = 100 mM as only food source over 14 days
[11] = 250 mM in 70% sucrose, 25 mites
[12] = 25 mM in 70% sucrose for seven days
[13] = 25 mM in 70% sucrose for seven days, 25 mites per cage, mean of 6 cages (LiCl) or 3 cages

[Cl-].[Li+] [LiCl, lithium chloride]
effect on bees within the first 4 days of treatment [1]: not affected | acaricidal efficacies for all six swarms [2]: above 80% | mites dead after 24 h [3]: 4 mites | mites dead after 48 h [3]: 15 mites | mites dead after 72 h [3]: 20 mites | tolerance by bees ([4]; 2 mM over a period of 2 weeks): without pronounced decrease in viability | bees that survived the treatment ([4]; 2 mM, 50 bees, 2 weeks): 42 bees | bees alive at the end of the experiment ([4]; 10 mM, 50 bees, 2 weeks): 34 bees | tolerability by the bees ([4]; 50 mM, 50 bees): good tolerability | bees lost in the timespan of the entire experiment ([4]; 50 mM, 50 bees, 2 weeks): 20 bees | effect on bees [4, 10]: time delayed continuous loss of bees | average rate of bee loss ([4]; 250 mM until all mites dead, then sucrose only, 50 bees): 3 bees per day | bees lost in total ([4]; 250 mM until all mites dead, then sucrose only, 50 bees, 2 weeks): 27 bees | impact on bee health ([4]; single dose of sucrose with 25 mM, entire experiment): no negative impact on bee health | Survival rate (%) of larvae or pupae ([5]; 10 mM added to larval food): 0% | time in which all larvae were lost ([5]; 10 mM, 25 mM or 50 mM added to larval food): ≤ 72 h | Survival rate (%) of larvae or pupae ([5]; 25 mM added to larval food): 0% | Survival rate (%) of larvae or pupae ([5]; 50 mM added to larval food): 0% | mites that survived the treatment ([6]; 2 mM, 25 mites, 2 weeks): 11 mites | time in which all mites were killed ([6]; 10 mM in 70% sucrose, 25 mites): ≤ 48 h | additional mites found dead at the end of the experiment ([6]; 10 mM, 25 mites): 2 mites | dead mites, day 1 ([6]; 10 mM, 25 mites): 3 mites | dead mites, day 2 ([6]; 10 mM, 25 mites): 10 mites | dead mites, day 3 ([6]; 10 mM, 25 mites): 7 mites | dead mites, day 4 ([6]; 10 mM, 25 mites): 3 mites | time to all mites dead ([6]; 50 mM in 70% sucrose, 25 mites): 48 h | effect on mites [6, 10]: effectively killed | mites lost between 30 h and 48 h [6, 11]: 21/25 | time to loss of all mites [6, 11]: ≤ 48 h | impact on viability of mites ([6]; concentrations lower than 2 mM (16 μM, 80 μM, 400 μM), data not shown): only marginally impacted the viability of mites | time to eliminate all mites ([6]; concentrations of 10 mM and higher): ≤ 4 days | time in which mites were effectively killed ([6]; single dose of sucrose with 25 mM, 50 bees, 25 mites): ≤ 72 h | acaricidal effect [7, 12]: strong acaricidal effect | Number of dead mites, Day 1 [7, 13]: 0.3 | Number of dead mites, Day 2 [7, 13]: 2.2 | Number of dead mites, Day 3 [7, 13]: 19.2 | Number of dead mites, Day 4 [7, 13]: 3.0 | Number of dead mites, Day 5 [7, 13]: 0.3 | Number of dead mites, Day 6 [7, 13]: 0.0 | Number of dead mites, Day 7 [7, 13]: 0.0 | Number of dead mites, Sum ([7]; 25 mM in 70% sucrose, days 1-7, 25 mites per cage, mean of 6 cages (LiCl) or 3 cages): 25.0 | Number of dead bees, Day 1 [8, 12]: 0.2 | Number of dead bees, Day 2 [8, 12]: 0.2 | Number of dead bees, Day 3 [8, 12]: 0.3 | Number of dead bees, Day 4 [8, 12]: 0.8 | Number of dead bees, Day 5 [8, 12]: 0.5 | Number of dead bees, Day 6 [8, 12]: 1.0 | Number of dead bees, Day 7 [8, 12]: 0.2 | Number of dead bees, Sum ([8]; 25 mM in 70% sucrose, days 1-7): 3 and 3.2 | Remaining mites ([9]; 2 mM in 70% sucrose for 23 days): 234 | Remaining mites ([9]; 10 mM in 70% sucrose for 23 days): 54 | Remaining mites ([9]; 25 mM in 70% sucrose for 23 days): 24
